Results published in EP1612281A2, “Methods for assessing patients with acute myeloid leukemia” (Veridex, LLC, priority 2004, dated 2006).

Test system: patients with relapsed or refractory AML
Assay: Open label, multicenter, non-comparative phase 2 clinical study of tipifarnib with gene expression profiling
Assay type: in vivo, human
Description: The current study was part of an open label, multicenter, non-comparative phase 2 clinical study in which patients with relapsed or refractory AML (Harousseau et al. (2003)) were treated with tipifarnib at a starting oral dose of 600 mg bid for the first 21 consecutive days of each 28-day cycle. Patients were enrolled into 2 cohorts, those with relapsed AML and those with refractory AML. A total of 252 patients (135 relapsed and 117 refractory) were treated. Eighty patients chose to provide bone marrow samples for RNA microarray analysis, for which a separate informed consent was required. […] Complete remission with incomplete platelet recovery was defined similarly, except for a platelet count less than 100,000/µL sufficient to ensure transfusion independence. Partial remission was defined as at least a 50% decrease in bone marrow blasts with partial neutrophil (>500/µL) and platelet count (>50,000/µL) recovery. Response had to be confirmed at least 4 weeks after first documentation.
The current study was an open label, multicenter, non-comparative Phase 2 study investigating the efficacy and safety of farnesyl transferase inhibition with tipifarnib administered as a single agent, at a starting oral dose of 600 mg b.i.d. for the first 21 days of each 28 day cycle in AML. Subjects were enrolled into two cohorts, those with relapsed AML and those with refractory AML. A total of 252 patients (135 relapsed and 117 refractory) were treated.

**Q.** `Cn1cncc1[C@@](N)(c1ccc(Cl)cc1)c1ccc2c(c1)c(-c1cccc(Cl)c1)cc(=O)n2C` [tipifarnib] was tested. Which response rate (current patient population (10/54), stable disease patients excluded) did it give?
**A.** 18%

**Q.** And the response rate (entire group of 58 profiled patients (14/58), response includes objective response, hematological response or stable disease)?
**A.** 24%

**Q.** What about the response rate (patients with low expression of AKAP13 (8/26), stable disease patients excluded) of the same compound?
**A.** 31%

**Q.** What about the response rate (patients with low expression of the AKAP13 gene (13/30), LOOCV, 58 samples) of the same compound?
**A.** 43%

**Q.** What about the response rate (patients with the 3-gene signature (AHR, AKAP13, MINA53) (12/25), LOOCV) of the same compound?
**A.** 48%
